The results in this text go back to US12435089B2, “3-oxadiazolyl substituted pyrazolo[1,5,a]pyrimidines for ROS1, NTRK, and ALK mediated diseases” (TYK MEDICINES, INC., priority 2019, dated 2025).

Where two headings read alike, the source gives them in different places.

One test has as its target TRKA (G677C) (Homo sapiens, UniProt P04629, G667C). The experiment in a line: Radio-tagged HotSpot kinase assay, TRKA (G677C). It counts as biochemical. The conditions noted are these: 33P-ATP, 120 min, room temperature.
In a further test the target is TRKB (Homo sapiens (Human), UniProt Q16620). The experiment in a line: Radio-tagged HotSpot kinase assay, TRKB. Particulars: 33P-ATP, 120 min, room temperature. It counts as biochemical.
Chain of TRKB (Q16620 32-822): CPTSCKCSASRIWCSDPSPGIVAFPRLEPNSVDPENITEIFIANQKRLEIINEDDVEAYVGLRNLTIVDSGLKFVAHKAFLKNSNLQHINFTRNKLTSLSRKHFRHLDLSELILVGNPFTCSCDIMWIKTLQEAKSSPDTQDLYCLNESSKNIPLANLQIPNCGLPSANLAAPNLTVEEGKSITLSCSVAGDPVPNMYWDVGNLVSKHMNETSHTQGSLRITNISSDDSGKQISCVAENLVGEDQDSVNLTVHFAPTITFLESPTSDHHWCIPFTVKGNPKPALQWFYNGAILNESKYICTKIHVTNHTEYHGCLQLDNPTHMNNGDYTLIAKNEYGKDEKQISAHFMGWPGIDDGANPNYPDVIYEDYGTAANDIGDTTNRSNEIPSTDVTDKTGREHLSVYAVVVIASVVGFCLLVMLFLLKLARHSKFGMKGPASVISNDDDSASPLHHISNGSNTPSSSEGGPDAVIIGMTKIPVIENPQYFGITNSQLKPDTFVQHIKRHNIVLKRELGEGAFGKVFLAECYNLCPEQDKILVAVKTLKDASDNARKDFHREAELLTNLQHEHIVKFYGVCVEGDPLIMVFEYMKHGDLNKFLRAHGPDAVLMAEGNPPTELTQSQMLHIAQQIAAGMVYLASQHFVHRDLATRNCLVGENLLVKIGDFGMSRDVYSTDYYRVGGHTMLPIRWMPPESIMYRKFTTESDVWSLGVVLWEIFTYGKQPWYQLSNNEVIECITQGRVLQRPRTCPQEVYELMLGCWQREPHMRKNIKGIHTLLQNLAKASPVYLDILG
The next test deals with TRKC (Homo sapiens (Human), UniProt Q16288). In words: Radio-tagged HotSpot kinase assay, TRKC. It counts as biochemical. Particulars: 33P-ATP, 120 min, room temperature.
Chain of TRKC (Q16288 32-839): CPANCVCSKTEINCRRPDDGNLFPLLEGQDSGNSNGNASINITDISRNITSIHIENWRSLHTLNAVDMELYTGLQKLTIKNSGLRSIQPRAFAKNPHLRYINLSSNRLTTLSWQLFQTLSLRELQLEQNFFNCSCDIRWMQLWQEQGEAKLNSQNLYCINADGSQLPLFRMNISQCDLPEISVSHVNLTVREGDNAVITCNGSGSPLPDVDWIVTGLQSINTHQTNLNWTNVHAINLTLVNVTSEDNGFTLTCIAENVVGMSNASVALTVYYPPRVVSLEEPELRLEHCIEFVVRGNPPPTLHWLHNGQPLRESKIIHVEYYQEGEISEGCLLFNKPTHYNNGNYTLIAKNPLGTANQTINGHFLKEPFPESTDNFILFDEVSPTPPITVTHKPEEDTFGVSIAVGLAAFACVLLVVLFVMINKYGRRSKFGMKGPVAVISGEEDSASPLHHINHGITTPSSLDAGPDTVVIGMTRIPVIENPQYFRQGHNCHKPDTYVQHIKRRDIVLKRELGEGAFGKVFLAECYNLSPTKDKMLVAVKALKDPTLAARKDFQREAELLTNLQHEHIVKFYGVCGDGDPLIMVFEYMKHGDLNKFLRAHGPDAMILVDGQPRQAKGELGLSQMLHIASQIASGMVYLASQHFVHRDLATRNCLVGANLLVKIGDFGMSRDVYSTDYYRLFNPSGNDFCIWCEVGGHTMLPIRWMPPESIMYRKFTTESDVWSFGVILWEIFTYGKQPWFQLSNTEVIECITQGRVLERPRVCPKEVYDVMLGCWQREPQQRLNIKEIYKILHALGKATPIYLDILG
The target of another test is ALK (Homo sapiens (Human), UniProt Q9UM73). The experiment in a line: Radio-tagged HotSpot kinase assay, ALK. It counts as biochemical. The conditions noted are these: 33P-ATP, 120 min, room temperature.
The target of the next test is ALK (G1202R) (Homo sapiens (Human), UniProt Q9UM73, G1202R). In words: Radio-tagged HotSpot kinase assay, ALK (G1202R). It counts as biochemical. Particulars: 33P-ATP, 120 min, room temperature.
The next test relates to Ba/F3-CD74-ROS1. The experiment in a line: Inhibition of cell proliferation (CellTiter-Glo), Ba/F3-CD74-ROS1. The conditions noted are these: 72 hours. The format is cell-based. The procedure:
(§1) The experiment of inhibiting cell proliferation by compounds was carried out in Hefei Zhongkeprecedo Biomedical Technology Co., Ltd. The Ba/F3 engineered cell line stably transfected with different kinase genes was recovered with RPMI 1640 medium (Biological Industries, Israel)+10% fetal bovine serum (Biological Industries, Israel)+1% double antibody (Penicillin Streptomycin solution, Coring, USA) and cultivated two generations. The logarithmic growth phase cell suspension was taken, and 2000 cells/well were inoculated on 96-well white cell culture plate (Corning 3917, NY, USA) with a volume of 95 μL per well. 5 μL of 20×DMSO solution of the compound to be tested was added into the culture plate containing 95 μL of cell suspension. The blank control group was added with corresponding volume of DMSO, mixed well, and incubated in a 5% CO2 incubator at 37° C. for 72 hours. CellTiter-Glo was used to detect cell viability.
Background: Cellular ATP, detected with luciferase, serves as a proxy for viable cell number.

Another test relates to Ba/F3-CD74-ROS1-G2032R. The experiment in a line: Inhibition of cell proliferation (CellTiter-Glo), Ba/F3-CD74-ROS1-G2032R. It counts as cell-based. The conditions noted are these: 72 hours. As for the experimental part:
as §1

In a further test the test system is Ba/F3-LMNA-NTRK1. In words: Inhibition of cell proliferation (CellTiter-Glo), Ba/F3-LMNA-NTRK1. It counts as cell-based. Particulars: 72 hours. As for the experimental part:
as §1

A further test concerns Ba/F3-LMNA-NTRK1-G595R. In words: Inhibition of cell proliferation (CellTiter-Glo), Ba/F3-LMNA-NTRK1-G595R. The format is cell-based. Particulars: 72 hours. As for the experimental part: as §1
The test system of another test is Ba/F3-TEL-ALK-G1202R. The experiment in a line: Inhibition of cell proliferation (CellTiter-Glo), Ba/F3-TEL-ALK-G1202R. Particulars: 72 hours. The format is cell-based. The procedure: as §1
Another test addresses ROS1 (Homo sapiens (Human), UniProt P08922). The experiment in a line: Radio-tagged HotSpot kinase assay, ROS1.
In another test the target is TRKA (Homo sapiens (Human), UniProt P04629). The experiment in a line: Radio-tagged HotSpot kinase assay, TRKA.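 Note: kinase activity measured through incorporation of 33P from labelled ATP into substrate, 120 min at room temperature, relative to a DMSO-only blank control, reported as inhibition.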
Chain of TRKA (P04629 33-796): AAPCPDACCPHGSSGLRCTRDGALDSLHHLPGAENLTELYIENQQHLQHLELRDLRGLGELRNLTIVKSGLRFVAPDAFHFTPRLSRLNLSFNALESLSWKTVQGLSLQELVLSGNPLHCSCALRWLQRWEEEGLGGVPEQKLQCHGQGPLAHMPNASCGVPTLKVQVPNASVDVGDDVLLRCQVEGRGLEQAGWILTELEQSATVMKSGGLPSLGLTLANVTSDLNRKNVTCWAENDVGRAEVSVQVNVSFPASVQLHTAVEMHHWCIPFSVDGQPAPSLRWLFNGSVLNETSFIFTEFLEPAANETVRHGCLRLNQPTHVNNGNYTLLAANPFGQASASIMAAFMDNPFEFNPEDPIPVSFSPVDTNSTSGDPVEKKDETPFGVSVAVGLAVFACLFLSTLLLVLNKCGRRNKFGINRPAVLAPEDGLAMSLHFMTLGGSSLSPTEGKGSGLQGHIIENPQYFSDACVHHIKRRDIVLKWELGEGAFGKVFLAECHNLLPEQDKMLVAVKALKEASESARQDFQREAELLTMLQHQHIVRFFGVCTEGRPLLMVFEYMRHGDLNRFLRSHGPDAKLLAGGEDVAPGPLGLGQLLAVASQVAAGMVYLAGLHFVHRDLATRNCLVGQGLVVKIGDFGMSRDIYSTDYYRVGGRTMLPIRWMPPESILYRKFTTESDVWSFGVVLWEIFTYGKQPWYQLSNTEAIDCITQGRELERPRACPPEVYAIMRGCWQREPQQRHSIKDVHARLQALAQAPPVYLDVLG
Another test concerns the target TRKA (G595R) (Homo sapiens (Human), UniProt P04629, G595R). The experiment in a line: Radio-tagged HotSpot kinase assay, TRKA (G595R).
A further test concerns the target ROS1 (G2032R) (Homo sapiens (Human), UniProt P08922, G2032R). In words: Radio-tagged HotSpot kinase assay, ROS1 (G2032R).
The mark [1] stands for this setting: read-out: ROS1 (IC50/nM), 33P-ATP, 120 min, room temperature.
Where [2] appears, read: read-out: TRKA (IC50/nM), 33P-ATP, 120 min, room temperature.
Setting [3] is: read-out: ROS1 (G2032R) (IC50/nM), 33P-ATP, 120 min, room temperature.

Chain of TRKA (G677C) (P04629 33-796 G667C limits assumed): as the sequence (P04629 33-796) above, with G635C counted along it
Chain of ROS1 (G2032R) (P08922 28-2347 G2032R): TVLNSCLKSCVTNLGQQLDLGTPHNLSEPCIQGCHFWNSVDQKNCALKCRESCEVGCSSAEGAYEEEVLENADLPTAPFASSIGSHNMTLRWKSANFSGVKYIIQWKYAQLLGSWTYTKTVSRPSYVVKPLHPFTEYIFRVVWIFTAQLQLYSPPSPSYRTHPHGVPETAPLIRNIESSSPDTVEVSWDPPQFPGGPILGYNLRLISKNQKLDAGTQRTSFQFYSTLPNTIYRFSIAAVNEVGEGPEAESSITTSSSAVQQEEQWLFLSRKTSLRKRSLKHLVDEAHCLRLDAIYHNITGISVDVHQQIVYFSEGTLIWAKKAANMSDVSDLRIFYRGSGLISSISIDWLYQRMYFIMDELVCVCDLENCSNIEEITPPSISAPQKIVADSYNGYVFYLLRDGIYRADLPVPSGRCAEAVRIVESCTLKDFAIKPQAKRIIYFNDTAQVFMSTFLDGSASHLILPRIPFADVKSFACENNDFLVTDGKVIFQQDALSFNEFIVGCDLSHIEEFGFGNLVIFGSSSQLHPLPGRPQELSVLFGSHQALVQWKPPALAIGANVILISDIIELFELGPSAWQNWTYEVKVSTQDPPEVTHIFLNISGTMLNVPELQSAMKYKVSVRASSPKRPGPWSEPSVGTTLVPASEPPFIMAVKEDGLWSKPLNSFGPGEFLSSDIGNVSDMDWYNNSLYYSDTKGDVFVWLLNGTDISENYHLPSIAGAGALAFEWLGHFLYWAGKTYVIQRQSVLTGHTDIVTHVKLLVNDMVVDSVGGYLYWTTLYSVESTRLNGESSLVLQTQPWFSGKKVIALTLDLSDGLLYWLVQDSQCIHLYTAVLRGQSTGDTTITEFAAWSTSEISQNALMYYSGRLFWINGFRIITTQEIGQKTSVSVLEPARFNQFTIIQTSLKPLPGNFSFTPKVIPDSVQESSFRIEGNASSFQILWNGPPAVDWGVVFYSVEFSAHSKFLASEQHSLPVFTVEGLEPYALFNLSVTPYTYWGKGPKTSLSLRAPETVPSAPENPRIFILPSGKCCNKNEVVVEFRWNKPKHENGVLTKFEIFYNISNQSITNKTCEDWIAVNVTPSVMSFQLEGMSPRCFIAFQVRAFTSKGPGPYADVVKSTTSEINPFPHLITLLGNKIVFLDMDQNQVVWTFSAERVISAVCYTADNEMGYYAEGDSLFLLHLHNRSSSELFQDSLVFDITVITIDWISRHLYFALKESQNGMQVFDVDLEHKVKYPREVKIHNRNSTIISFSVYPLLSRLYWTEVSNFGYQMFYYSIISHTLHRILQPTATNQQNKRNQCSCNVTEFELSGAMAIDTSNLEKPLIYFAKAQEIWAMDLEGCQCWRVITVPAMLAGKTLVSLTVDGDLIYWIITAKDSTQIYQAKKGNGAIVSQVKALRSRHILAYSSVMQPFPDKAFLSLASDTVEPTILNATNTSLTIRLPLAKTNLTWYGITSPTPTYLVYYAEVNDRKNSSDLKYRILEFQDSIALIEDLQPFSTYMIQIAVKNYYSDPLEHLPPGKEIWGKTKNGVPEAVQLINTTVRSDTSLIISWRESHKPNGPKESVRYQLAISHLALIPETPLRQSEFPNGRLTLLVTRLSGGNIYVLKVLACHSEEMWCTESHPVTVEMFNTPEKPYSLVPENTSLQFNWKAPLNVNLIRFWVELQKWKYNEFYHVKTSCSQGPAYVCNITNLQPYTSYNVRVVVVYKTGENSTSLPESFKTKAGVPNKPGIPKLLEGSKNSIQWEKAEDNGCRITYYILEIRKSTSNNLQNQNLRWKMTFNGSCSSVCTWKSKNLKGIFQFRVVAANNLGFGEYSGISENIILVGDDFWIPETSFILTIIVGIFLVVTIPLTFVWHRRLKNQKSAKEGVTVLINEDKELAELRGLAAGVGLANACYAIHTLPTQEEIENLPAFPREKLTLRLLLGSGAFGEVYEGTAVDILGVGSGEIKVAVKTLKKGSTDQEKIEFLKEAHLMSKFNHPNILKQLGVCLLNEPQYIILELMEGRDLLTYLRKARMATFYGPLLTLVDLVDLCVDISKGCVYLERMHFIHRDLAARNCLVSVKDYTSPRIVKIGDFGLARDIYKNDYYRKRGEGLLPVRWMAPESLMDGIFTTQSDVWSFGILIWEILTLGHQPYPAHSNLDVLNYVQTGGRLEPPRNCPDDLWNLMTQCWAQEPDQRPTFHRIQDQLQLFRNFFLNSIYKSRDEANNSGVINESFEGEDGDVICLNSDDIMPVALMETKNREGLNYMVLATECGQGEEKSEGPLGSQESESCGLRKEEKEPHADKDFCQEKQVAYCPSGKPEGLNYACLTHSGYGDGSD
Chain of ROS1 (P08922 28-2347): as the sequence (P08922 28-2347 G2032R) above, with R2005G counted along it
Chain of TRKA (G595R) (P04629 33-796 G595R): as the sequence (P04629 33-796) above, with G563R counted along it

Consider `COc1ccc(F)cc1[C@@H](C)Nc1ccn2ncc(C3=NOC(C)(C)N3)c2n1` [Example 10], for which the IC50 against TRKA (G677C) is 0.5 to 5 nM; against TRKB it was less than 0.5 nM; on TRKC, less than 0.5 nM; against ALK, 5 to 50 nM; against ALK (G1202R) it was 0.5 to 5 nM; in the test with Ba/F3-CD74-ROS1 it was 2.8 nM. For the same compound, the IC50 in the test on Ba/F3-CD74-ROS1-G2032R was 7.9 nM; in the test with Ba/F3-LMNA-NTRK1, 1.3 nM; with Ba/F3-LMNA-NTRK1-G595R, 2.2 nM; in the test on Ba/F3-TEL-ALK-G1202R, 87.5 nM; on ROS1 (setting [1]), less than 0.5 nM; on TRKA (setting [2]), less than 0.5 nM. For the same compound, the figures for the IC50 against TRKA (G595R) and on ROS1 (G2032R) (setting [3]) were 0.5 to 5 nM and less than 0.5 nM, respectively.

Take `COc1ncc(F)cc1[C@@H](C)Nc1ccn2ncc(C3=NOC(C)(C)N3)c2n1` [Example 28]: the IC50 is 5 to 50 nM against TRKA (G677C); less than 0.5 nM on TRKB; less than 0.5 nM at TRKC; 5 to 50 nM at ALK; 0.5 to 5 nM against ALK (G1202R); less than 0.5 nM on ROS1 (setting [1]). Besides, the IC50 at TRKA (setting [2]) was less than 0.5 nM; against TRKA (G595R), 0.5 to 5 nM; at ROS1 (G2032R) (setting [3]), less than 0.5 nM.

For `C[C@@H](Nc1ccn2ncc(C3=NOC(C)(C)N3)c2n1)c1cc(F)ccc1Br` [Example 23], the IC50 against TRKA (G677C) lay in the range of 5 to 50 nM; against TRKB it was 0.5 to 5 nM; against TRKC it was 0.5 to 5 nM; against ALK (G1202R) it was 5 to 50 nM; against ROS1 it was 0.5 to 5 nM; on TRKA, 0.5 to 5 nM. Further, the IC50 is 5 to 50 nM against TRKA (G595R) and 0.5 to 5 nM against ROS1 (G2032R).

As to `[2H]C([2H])([2H])Oc1ccc(F)cc1[C@@H](C)Nc1ccn2ncc(C3=NOC(C)(C)N3)c2n1` [Example 4], the IC50 on TRKA (G677C) lay in the range of 5 to 50 nM; against ALK, 0.5 to 5 nM; at ALK (G1202R) it was 5 to 50 nM; on TRKA (G595R), 5 to 50 nM.

As to `CC(C)Oc1ccc(F)cc1[C@@H](C)Nc1ccn2ncc(C3=NOC(C)(C)N3)c2n1` [Example 51], the IC50 against TRKA (G677C) was 5 to 50 nM; at TRKB, less than 0.5 nM; against TRKC, less than 0.5 nM; against ALK it was 5 to 50 nM; against ALK (G1202R), 0.5 to 5 nM; at ROS1 (setting [1]), less than 0.5 nM. Also, the IC50 is 0.5 to 5 nM on TRKA, 5 to 50 nM against TRKA (G595R) and less than 0.5 nM on ROS1 (G2032R) (setting [3]).

In the case of `C[C@@H](Oc1ccn2ncc(C3=NOC(C)(C)N3)c2n1)c1c(Cl)ccc(F)c1Cl` [Example 9], the IC50 against TRKA (G677C) is 50 to 500 nM; at TRKB, 0.5 to 5 nM; on ALK, 50 to 500 nM; in the test with Ba/F3-CD74-ROS1 it was 26.2 nM; with Ba/F3-CD74-ROS1-G2032R it was 155 nM; in the test on Ba/F3-LMNA-NTRK1, 100 nM. The IC50 in the test on Ba/F3-LMNA-NTRK1-G595R turned out to be 890 nM.

Take `Cc1ccc(F)cc1[C@@H](C)Nc1ccn2ncc(C3=NOC(C)(C)N3)c2n1` [Example 42]: the IC50 on TRKB was 0.5 to 5 nM; against TRKC, 0.5 to 5 nM; against ALK it was 5 to 50 nM; at ROS1, 0.5 to 5 nM; at TRKA, 0.5 to 5 nM.

With `C[C@@H](Nc1ccn2ncc(C3=NOC(C)(C)N3)c2n1)c1c(Cl)ccc(F)c1Cl` [Example 14], the IC50 against TRKA (G677C) is 5 to 50 nM; on TRKB it was 0.5 to 5 nM; on TRKC, 0.5 to 5 nM; against ALK (G1202R), 5 to 50 nM; at ROS1 it was 0.5 to 5 nM; against TRKA, 0.5 to 5 nM. For the same compound, the IC50 is 5 to 50 nM against TRKA (G595R) and 0.5 to 5 nM at ROS1 (G2032R).

Take `CCOc1ccc(F)cc1[C@@H](C)Nc1ccn2ncc(C3=NOC(C)(C)N3)c2n1` [Example 50]: the IC50 against TRKA (G677C) was 0.5 to 5 nM; against TRKB, less than 0.5 nM; against TRKC it was less than 0.5 nM; against ALK, 5 to 50 nM; against ALK (G1202R), 0.5 to 5 nM; at ROS1 (setting [1]), less than 0.5 nM. The results for the IC50 against TRKA, against TRKA (G595R) and on ROS1 (G2032R) (setting [3]) were 0.5 to 5 nM, 0.5 to 5 nM and less than 0.5 nM, respectively.

Consider `C[C@@H](Nc1ccn2ncc(C3=NOC(C)(C)N3)c2n1)c1cc(F)ccc1F` [Example 5], for which the IC50 against TRKA (G677C) was 5 to 50 nM; on TRKB, less than 0.5 nM; at TRKC, less than 0.5 nM; at ALK it was 0.5 to 5 nM; against ALK (G1202R), 5 to 50 nM; at ROS1 (setting [1]), less than 0.5 nM. Further, the IC50 against TRKA is 0.5 to 5 nM; on TRKA (G595R) it was 5 to 50 nM; on ROS1 (G2032R) (setting [3]), less than 0.5 nM.

Regarding `CCc1ccc(F)cc1[C@@H](C)Nc1ccn2ncc(C3=NOC(C)(C)N3)c2n1` [Example 52], the IC50 against TRKA (G677C) was 50 to 500 nM; at TRKB, 0.5 to 5 nM; against TRKC, less than 0.5 nM; against ALK, 50 to 500 nM; on ALK (G1202R), 5 to 50 nM; on ROS1 (setting [1]), less than 0.5 nM. Also, the values for the IC50 on TRKA, against TRKA (G595R) and on ROS1 (G2032R) were 0.5 to 5 nM, 5 to 50 nM and 0.5 to 5 nM, respectively.
